Laboratory results: patent publication US12077503B2, “Substituted cyclic amides and their use as herbicides” (FMC CORPORATION, priority 2015, dated 2024)

Key:
Type in all cases: in vivo
[1] = test system: ducksalad (Heteranthera limosa); experiment: Test B flooded paddy test; conditions: Heteranthera limosa, 250 g ai/ha, Flood; 0 to 100 scale where 0 is no effect and 100 is complete control; read-out: Ducksalad plant response rating
In short: (§1)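 Flooding to 3 cm over soil accompanied treatment, which consisted of adding compound to the standing water around 2-leaf plants; depth was then maintained. Visual assessment versus controls followed at 13 to 15 d (scale 0–100, 0 meaning no effect).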

[2] = test system: barnyardgrass (Echinochloa crus-galli); experiment: Test B flooded paddy test; conditions: Echinochloa crus-galli, 250 g ai/ha, Flood; 0 to 100 scale where 0 is no effect and 100 is complete control; read-out: Barnyardgrass plant response rating
In short: as §1

rice (Oryra sativa) = experiment: Test B flooded paddy test; conditions: Oryza sativa, 250 g ai/ha, Flood; 0 to 100 scale where 0 is no effect and 100 is complete control; read-out: Rice plant response rating
In short: as §1

[3] = test system: sedge, umbrella (small-flower umbrella sedge, Cyperus difformis); experiment: Test B flooded paddy test; conditions: Cyperus difformis, 250 g ai/ha, Flood; 0 to 100 scale where 0 is no effect and 100 is complete control; read-out: Sedge, Umbrella plant response rating
In short: as §1

[4] = test system: blackgrass (Alopecurus myosuroides); experiment: Test A postemergence; conditions: Alopecurus myosuroides, post-emergence, 240 h, postemergence; for pest or weed control at 125 g/ha: 125 g ai/ha, visual injury vs untreated controls after approx. 10 d, 0 = no effect, 100 = complete control, read-out: Blackgrass plant response rating (0 to 100 scale); for pest or weed control at 500 g/ha: 500 g ai/ha, 0 to 100 scale, 0 is no effect, 100 is complete control, read-out: Blackgrass plant response rating
In short: (§2)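 In a loam soil and sand blend, planted seeds got a preemergence directed soil spray, and young plants at the one- to two-leaf stage, 2–10 cm high, got a postemergence application; ~10 d greenhouse hold; injury rated visually, 0 = none, 100 = complete control.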

[5] = test system: pigweed (Amaranthus retroflexus); experiment: Test A postemergence; conditions: Amaranthus retroflexus, post-emergence, 240 h, postemergence; for pest or weed control at 125 g/ha: 125 g ai/ha, visual injury vs untreated controls after approx. 10 d, 0 = no effect, 100 = complete control, read-out: Pigweed plant response rating (0 to 100 scale); for pest or weed control at 500 g/ha: 500 g ai/ha, 0 to 100 scale, 0 is no effect, 100 is complete control, read-out: Pigweed plant response rating
In short: as §2

[6] = test system: wheat (Triticum aestivum); experiment: Test A postemergence; conditions: Triticum aestivum, post-emergence, 240 h, postemergence; for plant injury at 125 g/ha: 125 g ai/ha, visual injury vs untreated controls after approx. 10 d, 0 = no effect, 100 = complete control, read-out: Wheat plant response rating (0 to 100 scale)
In short: as §2

[7] = test system: ragweed (common ragweed, Ambrosia elatior); experiment: Test A postemergence; conditions: Ambrosia artemisiifolia, post-emergence, 240 h, postemergence; for pest or weed control at 125 g/ha: 125 g ai/ha, visual injury vs untreated controls after approx. 10 d, 0 = no effect, 100 = complete control, read-out: Ragweed plant response rating (0 to 100 scale); for pest or weed control at 500 g/ha: 500 g ai/ha, 0 to 100 scale, 0 is no effect, 100 is complete control, read-out: Ragweed plant response rating
In short: as §2

corn (Zea mays) = experiment: Test A postemergence; conditions: Zea mays, post-emergence, 240 h, postemergence; for plant injury at 125 g/ha: 125 g ai/ha, visual injury vs untreated controls after approx. 10 d, 0 = no effect, 100 = complete control, read-out: Corn plant response rating (0 to 100 scale); for plant injury at 500 g/ha: 500 g ai/ha, 0 to 100 scale, 0 is no effect, 100 is complete control, read-out: Corn plant response rating
In short: as §2

[8] = test system: ryegrass, Italian (Italian ryegrass, Lolium multiflorum); experiment: Test A postemergence; conditions: Lolium multiflorum, post-emergence, 240 h, postemergence; for pest or weed control at 125 g/ha: 125 g ai/ha, visual injury vs untreated controls after approx. 10 d, 0 = no effect, 100 = complete control, read-out: Ryegrass, Italian plant response rating (0 to 100 scale); for pest or weed control at 500 g/ha: 500 g ai/ha, 0 to 100 scale, 0 is no effect, 100 is complete control, read-out: Ryegrass, Italian plant response rating
In short: as §2

[9] = test system: Galium (catchweed bedstraw, Galium aparine); experiment: Test A postemergence; conditions: Galium, post-emergence, 240 h, postemergence; for pest or weed control at 125 g/ha: 125 g ai/ha, visual injury vs untreated controls after approx. 10 d, 0 = no effect, 100 = complete control, read-out: Galium plant response rating (0 to 100 scale); for pest or weed control at 500 g/ha: 500 g ai/ha, 0 to 100 scale, 0 is no effect, 100 is complete control, read-out: Galium plant response rating
In short: as §2

[10] = test system: giant foxtail (Setaria faberii); experiment: Test A postemergence; conditions: Setaria faberi, post-emergence, 240 h, postemergence; for pest or weed control at 125 g/ha: 125 g ai/ha, visual injury vs untreated controls after approx. 10 d, 0 = no effect, 100 = complete control, read-out: Foxtail, Giant plant response rating (0 to 100 scale); for pest or weed control at 500 g/ha: 500 g ai/ha, 0 to 100 scale, 0 is no effect, 100 is complete control, read-out: Foxtail, Giant plant response rating
In short: as §2

[11] = test system: barnyardgrass (Echinochloa crus-galli); experiment: Test A postemergence; conditions: Echinochloa crus-galli, post-emergence, 240 h, postemergence; for pest or weed control at 125 g/ha: 125 g ai/ha, visual injury vs untreated controls after approx. 10 d, 0 = no effect, 100 = complete control, read-out: Barnyardgrass plant response rating (0 to 100 scale); for pest or weed control at 500 g/ha: 500 g ai/ha, 0 to 100 scale, 0 is no effect, 100 is complete control, read-out: Barnyardgrass plant response rating
In short: as §2

Structure (SMILES) | pest or weed control at 250 g/ha [1] [%] | pest or weed control at 250 g/ha [2] [%] | pest or weed control at 250 g/ha (rice (Oryra sativa)) [%] | pest or weed control at 250 g/ha [3] [%] | pest or weed control at 125 g/ha [4] [%] | pest or weed control at 500 g/ha [4] [%] | pest or weed control at 125 g/ha [5] [%] | pest or weed control at 500 g/ha [5] [%] | plant injury at 125 g/ha [6] [%] | pest or weed control at 125 g/ha [7] [%] | pest or weed control at 500 g/ha [7] [%] | plant injury at 125 g/ha (corn (Zea mays)) [%] | plant injury at 500 g/ha (corn (Zea mays)) [%] | pest or weed control at 125 g/ha [8] [%] | pest or weed control at 500 g/ha [8] [%] | pest or weed control at 125 g/ha [9] [%] | pest or weed control at 500 g/ha [9] [%] | pest or weed control at 125 g/ha [10] [%] | pest or weed control at 500 g/ha [10] [%] | pest or weed control at 125 g/ha [11] [%] | other results
CN1CC[C@H](c2ccc(C(F)(F)F)cc2)[C@@H](C(=O)Nc2cccc(F)c2F)C1=O [Compound 1225] | 100 | 80 | 20 | 0 | 30 | 40 | 30 | 40 | 30 | 40 | 50 | 30 | 90 | 30 | 30 | 50 | 70 | 90 | 90 | 90 | plant injury at 500 g/ha ([6]; 500 g ai/ha, 0 to 100 scale, 0 is no effect, 100 is complete control, read-out: Wheat plant response rating): 70%; pest or weed control at 500 g/ha [11]: 90%
CSc1ccccc1NC(=O)[C@H]1C(=O)N(C)C[C@@H]1c1cccc(C)c1 [Compound 1232] | 95 | 55 | 0 | 0 | 0 | 40 | 0 | 40 | 0 | 0 | 50 | 0 | 70 | 30 | 60 | 20 | 60 | 80 | 90 | 80 | pest or weed control at 500 g/ha [11]: 80%
